# In patent US6300327A, “Compositions and methods for potentiation of neurotrophin activity” (The University of Southern California, priority 1997, dated 2001):
# Entries after “also recorded” stand apart in the source; their conditions may differ. Like-named read-outs stand apart in the source and are kept apart here.
# Columns and labels:
# [1] = tested on: midbrain dopaminergic neurons (cultures of ventral mesencephalon); experiment: Dopamine uptake in primary cultures of fetal rat ventral mesencephalon; assay type: cell-based; settings: for activity at 5 µM: Rattus norvegicus, Neuron; for Dopamine uptake, Mean ± SEM: n=4
# Protocol: (§1) Primary cultures of fetal rat brain septal and mesencephalic cells were prepared in a heretofore known manner [Knusel et al., supra]. Briefly, defined areas were dissected from fetal rat brains (Wistar, E15-16, Charles River, Mass.). The septal area contained the cholinergic neurons from septum, diagonal band of Broca and nucleus basalis. The ventral mesencephalon containing the dopaminergic neurons of the substantia nigra and the ventral tegmental area was dissected and dissociated mechanically. The cells were plated in 16 mm multiwell plates precoated with polyethyleneimine (1 mg/ml, 37° C., overnight), containing 0.5 ml modified L-15 medium supplemented with 5% heat inactivated horse serum and 0.5% heat inactivated fetal calf serum. Modified L-15 was prepared [Knusel et al., "Selective and Nonselective Stimulation of Central Cholinergic and dopaminergic Development in vitro by Nerve Growth Factor, Basic Fibroblast Growth Factor, Epidermal Growth Factor, Insulin and the Insulin-like Growth Factors I and II," J. Neurosci. 10:558-570 (1990)] by adding various amino acids, vitamins, antibiotics, glucose and NaHCO3 to Leibovitz's L-15 medium (Gibco, Grand Island, N.Y.). Plating densities were 4×10^5 cells/cm^2 for basal forebrain cultures and 3×10^5 cells/cm^2 for mesencephalic cultures. Of these cells, 0.5 to 1% were cholinergic or dopaminergic, respectively. Growth factors were typically added on the second day of culture and the cells were grown for 5 or more days. For ChAT assays tissue was homogenized in 250 μl of 50 mM Tris-HCl buffer, pH 6.0 with 0.3% Triton X-100. [1-^14 C]acetylcoenzyme A (NEN) concentration was 20 μM and specific activity 4.09 Ci/mol. To measure dopamine uptake, cultures were preincubated for 5 min at 37° C. with 250 μl incubation solution (5 mM glucose, 1 mM ascorbic acid in PBS) containing 1 mM pargyline. [^3 H]dopamine (37 Ci/mmol) was then added to give a final concentration of 50 nM and the cultures were incubated for another 15 minutes. Blanks were obtained by incubating cells at 0° C.
# In Table 1, dopamine uptake is given as fmol/min/culture dish. Cultures were grown in 24-well plates for 7 days in L-15 medium with 5% horse and 0.5% fetal bovine serum and treated with growth factors and K-252b from the second day of culture. rhBDNF, 200 ng/ml; des-IGF-1, 1 μg/ml; n=4; *different from respective control group, p <0.01 (Student's t-test). The apparent difference between control cultures grown in presence and absence of K-252b was statistically not significant. The experiment shown is a representative case of a total of 5 independent experiments.
# [2] = tested on: forebrain cholinergic neurons (cultures of rat basal forebrain); experiment: ChAT activity in primary cultures of fetal rat basal forebrain (septal) cholinergic neurons treated with neurotrophins and K-252 compounds; assay type: cell-based
# Protocol: Recombinant human NGF (rhNGF), BDNF (rhBDNF), and NT-3 (rhNT-3) and K-252b were added to primary cultures of fetal rat brain neurons containing either forebrain cholinergic or midbrain dopaminergic neurons. A broad range of concentrations of K-252b were tested in presence of 50 ng/ml rhNGF, 200 ng/ml rhBDNF and 1 μg/ml rhNT-3, growth factor concentrations producing maximal trophic actions on cholinergic neurons. The trophic action was monitored by measuring the activity of ChAT, a parameter reflecting both survival and transmitter-specific differentiation of cholinergic cells.
# as §1
# FIG. 1 illustrates levels of ChAT activity in cultures of rat basal forebrain treated with rhNGF, rhBDNF, or rhNT- and K-252b. Growth factors were added on the second day of culture and the cells were grown for 5 days. Growth factor concentrations producing maximal elevations of ChAT activity were used. In FIG. 1, .largecircle. represents the control; .quadrature., 50 ng/ml rhNGF; Δ, 200 ng/ml rhBDNF; and .tangle-soliddn., 1 μg/ml rhNT-3. The ChAT stimulation mediated by all three neurotrophins was inhibited by K-252b at concentrations above 200 nM. […] N=4 per data point. Error bars represent SEMs and were omitted where they would have appeared smaller than the symbol.
# These compounds were accordingly tested for possible NT-3 potentiation at lower concentrations than necessary for NGF inhibition. Culture conditions were as described in Example 1. Cultures were untreated (controls) or treated with 200 ng/ml NT-3 and increasing concentrations of the inhibitors. The findings are shown in FIG. 6, in which "Stau", "K2a", "K2b", "K57", "K58", "K59" represent, respectively, staurosporine, K-252a, K-252b, KT5720, KT5823, and KT5296. […] Staurosporine and KT5296 were ineffective.
# [3] = biological target: cGMP-dependent protein kinase; settings: in vitro assay systems; cited from earlier work
# [4] = biological target: cAMP-dependent protein kinase; settings: in vitro assay systems; cited from earlier work
# trkB = experiment: Cell-free tyrosine phosphorylation of recombinant human trkB expressed in Sf9 insect cells; assay type: biochemical; settings: 10 μM K-252b
# Protocol: Human trk and trkB were expressed in Sf9 insect cells transfected using a baculovirus system. The trk proteins were immunoprecipitated as described above and the precipitates were incubated with 20 μCi [gamma-^32 P]ATP, 10 mM MnCl2, 20 mM Tris, pH 7.4, for 5 min at 25° C. in the presence of increasing amounts of K-252b or control solution. Phosphorylated proteins were analyzed as described for FIG. 4B. The tyrosine kinase activity of the trk and trkB proteins was activated in the absence of ligand, a common observation for receptor tyrosine kinase produced in the baculovirus system. The trk and trkB proteins were 25% pure as assayed by SDS-PAGE.
# K-252b interacts directly with the trk and trkB protein. Human trk and trkB were expressed in Sf9 insect cells transfected using a baculovirus system. trk proteins were immunoprecipitated and the precipitates were incubated with [gamma^32 P]ATP in the presence of increasing amounts of K-252b or control solution.
# neurotrophin activity = experiment: Neurotrophin potentiation in vitro (overall statements); assay type: cell-based
# [5] = tested on: protein kinase activity of the platelet-derived growth factor; settings: cell-free preparations; cited from earlier work
# protein kinase C = settings: in vitro assay systems; cited from earlier work
# Cytotoxicity in vitro = assay type: cell-based
smiles,measurement,setting,value
CC12OC(CC1(O)C(=O)O)n1c3ccccc3c3c4c(c5c6ccccc6n2c5c31)CNC4=O (stereo not shown) [K-252b],effect on increase in dopamine uptake mediated by BDNF,[1]; K-252b 5 μM (Table 1),prevented the increase in dopamine uptake; also recorded: inhibits the stimulatory action
same,activity at 5 µM,"[1]; read-out: Dopamine uptake, % of Control, With K-252b (5 μM) + des-IGF-1 1 μg/ml",201%
same,activity at 5 µM,"[1]; read-out: Dopamine uptake, % of Control, With K-252b (5 μM) + rhBDNF 200 ng/ml",119%
same,"Dopamine uptake, Mean ± SEM",[1]; With K-252b (5 μM) + des-IGF-1 1 μg/ml,22.9 ± 1.0 fmol/min/culture dish
same,"Dopamine uptake, Mean ± SEM",[1]; With K-252b (5 μM) + rhBDNF 200 ng/ml,13.6 ± 0.7 fmol/min/culture dish
same,"Dopamine uptake, Mean ± SEM","[1]; With K-252b (5 μM), no growth factor (Control)",11.4 ± 0.2 fmol/min/culture dish
same,effect on stimulatory action of bFGF and insulin on dopamine uptake,[1]; bFGF and insulin,does not inhibit
same,effect on stimulatory action of des-IGF-1 on dopamine uptake,[1]; des-IGF-1 1 μg/ml,not to inhibit
same,effect on action of BDNF on dopaminergic neurons,[1]; low concentrations of K-252b,did not potentiate
same,effect on ChAT actions of NGF or BDNF,[2]; 100 pM to 30 nM K-252b,without affecting
same,effect on potency and maximal efficacy of NT-3 (ChAT),[2]; 50 nM K-252b,increased both potency and maximal efficacy
same,effect on NT-3 stimulation of ChAT activity,[2]; 10-100 nM K-252b with NT-3,same stimulatory effect as NGF
same,IC100,"[2]; Rattus norvegicus, Neuron, read-out: minimal concentration required to completely abolish the ChAT responses",~2 µM
same,effect on stimulatory effects of NGF or BDNF on cholinergic neurons,[2]; low concentrations of K-252b,not potentiated
same,"effect on ChAT increases mediated by bFGF, insulin and insulin-like growth factor-1",[2]; non-neurotrophin growth factors,not affected
same,effect on trophic action of NGF on cholinergic neurons (ChAT),[2]; relatively high dosages,completely and selectively prevent
same,inhibition of action of central cholinergic neurons,"[2]; structural relatives, Example 6",inhibition
same,Ki,[3],10 to 100 nM
same,Ki,[4],10 to 100 nM
same,"effect on trkB tyrosine phosphorylation, cell-free system",trkB,completely prevented
same,effect on actions of NT-3,neurotrophin activity; nM concentrations,selectively potentiates
same,effect on actions of all neurotrophins,neurotrophin activity; μM concentrations,inhibits the actions of all neurotrophins
same,inhibition of protein kinase activity of the platelet-derived growth factor,[5],inhibits
same,Ki,protein kinase C,10 to 100 nM
same,cytotoxicity,Cytotoxicity in vitro,lacked cytotoxicity; also recorded: non-toxic
